Test results from US20230248638A1, “A PERSONAL CARE COMPOSITION COMPRISING ATRACTYLENOLIDE-I OR A SOURCE THEREOF” (Conopco, Inc., d/b/a UNILEVER, priority 2020, published 2023).

Tested on: Normal human epidermal melanocytes (NHEM)
Assay: Melanin content quantification in melanocytes
Type: cell-based
Conditions: 72 hours treatment, concentration as in Treatment column, melanin normalized to relative cell viability
Description: Normal human epidermal melanocytes (NHEM) (Biocell, Xi'an, China) were grown in melanocyte growth medium (MGM, Promocell, Germany) with human melanocyte growth supplement (Promocell, Germany). NHEM cells were seeded at a density of 4×10^4 cells in 500 μL MGM/well in a 24-well plate and incubated for 48 hours in an incubator (Thermo Scientific, Model 3111) at 37° C. with 5% CO2. After 48 hours, media was replaced with fresh media containing test samples (as per Table 1) for the following 72 hours.
After CCK8 absorbance readings were obtained, cells were lysed by lysis buffer at 60° C. for 1 hr. Then, 50 μL cell lysate was transferred to a new 96-well plate and absorbance was measured at 405 nm using TECAN plate reader. Serial dilutions of pure melanin were prepared as references.
The melanin content was calculated from the melanin standard curve. The melanin concentrations (μg/mL) were then normalized to the relative cell viability. The melanin inhibition rates were then calculated using the following equation: […]

| Structure (SMILES) | Melanin inhibition rate (% inhibition) |
| --- | --- |
| C=C1CCC[C@]2(C)C=C3OC(=O)C(C)=C3C[C@@H]12 [D, Atractylenolide -1] | 7.8 ± 2.80 % inhibition |
| CCCCCCC(O)CCCCCCCCCCC(=O)O (centres unmarked) [Example B, 12 hydroxystearic acid] | 5.6 ± 3.03 % inhibition |
